Here are results for one compound from patent US20040247589A1, “Anti-tumor activity from reptile serum” (priority 2001, published 2004).

Data set [1] has as its system PN71 cells. Description: Cell proliferation assay (BrdU) in PN71 cells. The class given is cell-based, murine. How it is done: (§1) Cell proliferation was assayed using the commercial ELISA kit BIOTRACK™ (RPN250, Amersham Life Sciences). The assay is based on incorporation of 5-bromo-2′-deoxyuridine (BrdU) during DNA synthesis. After treatment of cells with the tested agent for 24 hours, cells are incubated for 18 hours in the presence of 10 μM BrdU. This pyrimidine analog is incorporated into DNA and is detected using specific antibody conjugated to peroxidase following 3,3′,5′,5′-tetramethylbenzidine (TMB) as a substrate. The absorbance of the enzymatic product is measured at 450 nm.

For data set [2], the system named is normal bone marrow cells. Description: Cell proliferation assay (BrdU) in normal bone marrow cells. The conditions noted are these: normal human bone marrow cells. The class given is cell-based. As for the experimental part: as §1

Turning to `Nc1ccn([C@@H]2O[C@H](CO)[C@@H](O)[C@@H]2O)c(=O)n1` [Cytosar, Cytarabine], in data set [1], the “effect on proliferation (BrdU) of PN71 cells” value is reported as “indiscriminately destroys”. The “effect on proliferation (BrdU) of normal bone marrow cells” value in data set [2] is listed as “indiscriminately destroys”.
